From US7402548B2, “Benzoxazole compounds, process for producing the same and herbicides” (Kyoyu Agri Co., Ltd., priority 2000, dated 2008) come the findings set out here.

The test system of one data set is barnyard grass. Briefly: Herbicidal test for paddy field. Also: key: 0: normal development; 1: Less damaged; 2: Slightly damaged; 3: Moderately damaged; 4: Severely damaged; 5: All killed. It is filed as in vivo, Eschinochloa crusgalli. To be noted: 500 g/ha, dropwise addition to paddy water at 1.5 leaf stage of barnyard grass; glass house 25° C., 3 weeks; rank 0-5 vs non-treated district. An outline of the steps:
(§1)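 Wettable-powder formulations in water with 0.05% surfactant were dripped onto flooded (3 cm) Ube alluvial-soil pots at 500 g/ha, applied at barnyard grass 1.5-leaf stage. Plants were kept in a glasshouse at 25° C. for 3 weeks. Damage was scored 0 (normal) to 5 (all killed) versus untreated plants.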

In the next data set the test system is common lambsquarters. As to the kind of experiment: Soil treatment test for upland field. The format is in vivo, Chenopodium album. Particulars: 500 g/ha, 3 weeks, glass house 25° C. More on the design: key: 0 = normal development, 5 = all killed. An outline of the steps:
(§2)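 Pre-emergence: seeds sown in alluvial Ube soil, wettable powder diluted in water with 0.05% surfactant sprayed on soil surface at 500 g/ha. Plants held in glasshouse at 25° C average for 3 weeks. Damage scored 0 (normal) to 5 (all killed) versus untreated.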

A further data set relates to cotton. As to the kind of experiment: Soil treatment test for upland field. It is filed as in vivo. Particulars: 500 g/ha, 3 weeks, glass house 25° C. Put shortly:
as §2

The next data set deals with morning glory. As to the kind of experiment: Soil treatment test for upland field. It is filed as in vivo, Ipomoea spps. More on the design: key: 0 = normal development, 5 = all killed. To be noted: 500 g/ha, 3 weeks, glass house 25° C. An outline of the steps: as §2
The subject of data set [1] is Large crabgrass. As to the kind of experiment: Soil treatment test for upland field. It is filed as in vivo, Digitaria adscendens. To be noted: 500 g/ha, 3 weeks, glass house 25° C. More on the design: key: 0 = normal development, 5 = all killed. Put shortly:
as §2

The next data set has as its system soybean. As to the kind of experiment: Soil treatment test for upland field. The format is in vivo. More on the design: key: 0 = normal development, 5 = all killed. To be noted: 500 g/ha, 3 weeks, glass house 25° C. Put shortly: as §2
Data set [2] concerns Large crabgrass. Briefly: Foliar spread test for upland field. The format is in vivo, Digitaria adscendens. More on the design: key: 0 = normal development, 5 = all killed (6 ranks vs. untreated). Particulars: foliar spray, 500 ppm, 3 weeks, glass house 25° C. Put shortly: (§3)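 Plants grown about 2 weeks at 25 °C in volcanic ash soil were sprayed with wettable powder diluted to 500 ppm in water with 0.5% surfactant. After 3 weeks at 25 °C, damage was scored 0 (normal) to 5 (all killed) against untreated plants.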

A further data set has as its system bulrush. As to the kind of experiment: Herbicidal test for paddy field. Also: key: 0: normal development; 1: Less damaged; 2: Slightly damaged; 3: Moderately damaged; 4: Severely damaged; 5: All killed. The format is in vivo, Scrips juncoides. Particulars: 500 g/ha, dropwise addition to paddy water at 1.5 leaf stage of barnyard grass; glass house 25° C., 3 weeks; rank 0-5 vs non-treated district. An outline of the steps: as §1
In another data set the test system is annual bluegrass. Briefly: Foliar spread test for upland field. Particulars: foliar spray, 500 ppm, 3 weeks, glass house 25° C. More on the design: key: 0 = normal development, 5 = all killed (6 ranks vs. untreated). The format is in vivo, Poa annua. An outline of the steps: as §3
Another data set relates to blackgrass. As to the kind of experiment: Soil treatment test for upland field. The format is in vivo, Alopecurus aegualis. More on the design: key: 0 = normal development, 5 = all killed. To be noted: 500 g/ha, 3 weeks, glass house 25° C. Put shortly:
as §2

The test system of another data set is Xanthium pensylvanicum. As to the kind of experiment: Foliar spread test for upland field. Particulars: foliar spray, 500 ppm, 3 weeks, glass house 25° C. More on the design: key: 0 = normal development, 5 = all killed. It is filed as in vivo. Put shortly: as §3
In another data set the test system is Cassia obtusifolia. As to the kind of experiment: Foliar spread test for upland field. It is filed as in vivo. More on the design: key: 0 = normal development, 5 = all killed. To be noted: foliar spray, 500 ppm, 3 weeks, glass house 25° C. An outline of the steps:
as §3

Another data set has as its system young rice plant. As to the kind of experiment: Herbicidal test for paddy field. Also: key: 0: normal development; 1: Less damaged; 2: Slightly damaged; 3: Moderately damaged; 4: Severely damaged; 5: All killed. The format is in vivo. Particulars: 500 g/ha, dropwise addition to paddy water at 1.5 leaf stage of barnyard grass; glass house 25° C., 3 weeks; rank 0-5 vs non-treated district. On the procedure:
Then, the pots were filled with water to a depth of 3 cm. […] These plants were controlled in a glass house at an average temperature of 25° C. for 3 weeks, and then herbicidal effects thereof were investigated. The herbicidal effects are evaluated according to the following 6 ranks as compared with non-treated district. […] Incidentally, “-” in the column means not investigated.
For Effects Sotton in this document: key: 0: normal development; 1: Less damaged; 2: Slightly damaged; 3: Moderately damaged; 4: Severely damaged; 5: All killed.

Turning to `Fc1ccc2nc(-c3cccc(Oc4ccc(F)c(C(F)(F)F)c4)n3)oc2c1` [I-a-7], in the data set on barnyard grass, the “Effects Barnyardgrass” value is recorded as 1. In addition, the “Effects Common lambsquarters” value in the data set with common lambsquarters is 5. Also, in the data set with cotton, the “Effects Sotton” value was found to be 0. Moreover, in the data set with morning glory, the “Effects Morning glory” value is given as 1. The “Effects Large crabgrass” value with Large crabgrass [1] is given as 5; in the data set on Large crabgrass [2], 3. For the same molecule, the “Effects Soybean” value in the data set with soybean is given as 2. In addition, in the data set with bulrush, the “Effects Bulrush” value is reported as 0. Further, in the data set with annual bluegrass, the “Effects Annual bluegrass” value turned out to be 3. Moreover, in the data set with blackgrass, the “Effects Blackgrass” value was 4. Besides, in the data set with Xanthium pensylvanicum, the “Effects Common Cocklebur” value is recorded as 4. Besides, the “Effects Sicklepod” value in the data set with Cassia obtusifolia was 3.
In the case of `Fc1ccc2nc(-c3cccc(Oc4cccc(C(F)(F)F)c4)n3)oc2c1` [I-a-6, 6-(6-fluorobenzoxazol-2-yl)-2-(3-trifluoromethylphenoxy)pyridine], the “Effects Barnyardgrass” value in the data set on barnyard grass turned out to be 4. The “Effects Common lambsquarters” value in the data set on common lambsquarters is given as 5. In addition, in the data set with cotton, the “Effects Sotton” value is 1. The “Effects Morning glory” value in the data set on morning glory came out at 5. Also, in the data set on young rice plant, the “Effects Young rice plant” value is listed as 3. The “Effects Large crabgrass” value in the data set on Large crabgrass [1] and in the data set with Large crabgrass [2] was 5 throughout. Moreover, the “Effects Annual bluegrass” value with annual bluegrass stood at 5. The “Effects Blackgrass” value in the data set on blackgrass was determined as 5. Moreover, in the data set with Xanthium pensylvanicum, the “Effects Common Cocklebur” value is reported as 5. For the same molecule, in the data set with Cassia obtusifolia, the “Effects Sicklepod” value worked out at 5.
For the molecule `FC(F)(F)c1cccc(Oc2cccc(-c3nc4cc(Cl)ccc4o3)n2)c1` [I-a-3, 6-(5-chlorobenzoxazol-2-yl)-2-(3-trifluoromethylphenoxy)pyridine], the “Effects Barnyardgrass” value with barnyard grass is on record as 3. The “Effects Common lambsquarters” value in the data set with common lambsquarters is on record as 5. In addition, in the data set with morning glory, the “Effects Morning glory” value worked out at 3. For the same molecule, the “Effects Young rice plant” value with young rice plant was determined as 2. In addition, the “Effects Large crabgrass” value with Large crabgrass [1] was 5; with Large crabgrass [2], 2. For the same molecule, the “Effects Soybean” value in the data set on soybean is on record as 3. Further, the “Effects Bulrush” value with bulrush was 0. Also, in the data set with annual bluegrass, the “Effects Annual bluegrass” value came out at 4. In addition, the “Effects Blackgrass” value with blackgrass was 4. Further, in the data set on Xanthium pensylvanicum, the “Effects Common Cocklebur” value is on record as 4. In the data set on Cassia obtusifolia, the “Effects Sicklepod” value was 4.
